22 compounds from patent US9440982B2 (Eolas Therapeutics, Inc., priority 2012, dated 2016) can be followed below.

Read-outs that look alike come from different tables or passages of the source. A value given as a limit tells only on which side of the number the result lay.

The target of data set [1] is T1, OX1 (Homo sapiens, UniProt O43613).
T1 construct: expressed in transfected cells; host or cells: CHO (CHO-OX1, kept under selection antibiotic)
T1 sequence (O43613 1-425): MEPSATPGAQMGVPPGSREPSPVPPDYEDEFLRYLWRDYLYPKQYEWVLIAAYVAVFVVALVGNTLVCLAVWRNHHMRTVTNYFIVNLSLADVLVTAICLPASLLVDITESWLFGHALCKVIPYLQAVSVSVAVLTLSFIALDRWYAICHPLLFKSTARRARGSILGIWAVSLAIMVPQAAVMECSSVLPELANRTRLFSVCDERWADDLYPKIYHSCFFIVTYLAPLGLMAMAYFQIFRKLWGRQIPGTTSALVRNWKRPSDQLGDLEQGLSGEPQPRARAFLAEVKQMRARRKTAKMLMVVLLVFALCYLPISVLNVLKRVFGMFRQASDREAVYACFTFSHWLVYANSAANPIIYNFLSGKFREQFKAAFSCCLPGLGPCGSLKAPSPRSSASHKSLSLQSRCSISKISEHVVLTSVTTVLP
As to the kind of experiment: Orexin receptor cell-based functional assay, [Ca2+]i by FLIPR, CHO-OX1 cells. Summed up:
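CHO cells expressing human OX1 or OX2 loaded with calcium dye plus 2.5 mM probenecid at 37° C (calcium4, 30 min, or calcium6, 2 h), then exposed to compounds (0.1 nM-10 μM) for 30 min. Intracellular Ca2+ measured on FLIPR; antagonist format.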

In data set [2] the target is T2, CYP3A4 (Homo sapiens, UniProt P08684).
T2 construct: pre-incubated with human liver microsomes and NADPH; from tissue; host or cells: human liver microsomes
In words: Cytochrome P450 inhibition assay (midazolam hydroxylation). Type of data set: in vitro ADME. The note with it: human, human liver microsomes, probe midazolam (hydroxylation to 1′-hydroxymidazolam), 10 μM test compound, midazolam at approximately its Km. Summed up:
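Human liver microsomes; CYP3A4 activity as midazolam 1′-hydroxylation with substrate near Km, with or without 10 μM test compound, read as percent inhibition. For time-dependent inhibition, parallel samples were preincubated 30 min with NADPH before substrate, and percent inhibition compared with non-preincubated samples.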

The mark [3] stands for this setting: CHO-OX1 cells, [Ca2+]i by FLIPR, antagonist dose-range 0.1 nM-10 μM, EC90 of OXA, read-out: OX1.

T2 sequence (P08684 whole entry): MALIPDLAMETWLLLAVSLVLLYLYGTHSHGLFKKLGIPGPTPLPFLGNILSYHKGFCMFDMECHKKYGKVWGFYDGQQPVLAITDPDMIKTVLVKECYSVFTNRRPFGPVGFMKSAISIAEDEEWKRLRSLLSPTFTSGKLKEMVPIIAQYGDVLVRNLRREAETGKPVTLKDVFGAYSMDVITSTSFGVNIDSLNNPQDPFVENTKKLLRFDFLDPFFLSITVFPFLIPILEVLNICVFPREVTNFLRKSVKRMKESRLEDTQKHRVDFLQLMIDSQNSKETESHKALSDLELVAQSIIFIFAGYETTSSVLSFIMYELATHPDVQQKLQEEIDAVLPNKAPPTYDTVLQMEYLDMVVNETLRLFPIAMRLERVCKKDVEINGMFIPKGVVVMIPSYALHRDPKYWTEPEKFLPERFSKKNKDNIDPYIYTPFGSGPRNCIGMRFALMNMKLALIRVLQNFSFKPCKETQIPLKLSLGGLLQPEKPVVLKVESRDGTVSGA

What is called inhibition is the percentage by which the read-out fell short of the control. Take `C[C@@H]1CCCN(C(=O)c2cc(C#N)ccc2-c2ncccn2)[C@@H]1CNc1ncc(C(F)(F)F)cn1` [Example A323, 3-((2S,3R)-3-Methyl-2-(((5-(trifluoromethyl)pyrimidin-2-yl)amino)methyl)piperidine-1-carbonyl)-4-(pyrimidin-2-yl)benzonitrile]: in data set [1] (setting [3]), the IC50 turned out to be 10 nM. In data set [2], this compound came in with an inhibition at 10 µM of 39%.

For `Cc1ccc(-n2nccn2)c(C(=O)N2CCC[C@@H](C)[C@H]2CNc2ncc(C#N)cn2)n1` [Example A190, 2-((((2S,3R)-3-Methyl-1-(6-methyl-3-(2H-1,2,3-triazol-2-yl)picolinoyl)piperidin-2-yl)methyl)amino)pyrimidine-5-carbonitrile], the IC50 in data set [1] (setting [3]) amounted to 2000 nM. Moreover, in data set [2], at 10 µM the inhibition was 24%.

Regarding `Cc1ccc(-c2ccccn2)c(C(=O)N2CCC[C@@H](C)[C@H]2CNc2ncc(C(F)(F)F)cn2)c1` [Example A152, ((2S,3R)-3-Methyl-2-(((5-(trifluoromethyl)pyrimidin-2-yl)amino)methyl)piperidin-1-yl) (5-methyl-2-(pyridin-2-yl)phenyl)methanone], the IC50 in data set [1] (setting [3]) was determined as 4 nM. The compound further had an inhibition at 10 µM in data set [2] of 86%.

As to `CCn1cc(-c2ccc(C)cc2C(=O)N2CCC[C@@H](C)[C@H]2CNc2ccc(C(F)(F)F)cn2)cn1` [Example A110, (2-(1-Ethyl-1H-pyrazol-4-yl)-5-methylphenyl)((2S,3R)-3-methyl-2-(((5-(trifluoromethyl)pyridin-2-yl)amino)methyl)piperidin-1-yl)methanone], in data set [1] (setting [3]), the IC50 turned out to be 16 nM. Besides, at 10 µM the inhibition in data set [2] was 95%.

Regarding `Cc1ccc(-n2cc(C)cn2)c(C(=O)N2CCC[C@@H](C)[C@H]2CNc2ccc(C(F)(F)F)cn2)c1` [Example A107, ((2S,3R)-3-Methyl-2-(((5-(trifluoromethyl)pyridin-2-yl)amino)methyl)piperidin-1-yl)(5-methyl-2-(4-methyl-1H-pyrazol-1-yl)phenyl)methanone], the IC50 in data set [1] (setting [3]) worked out at 4 nM. Further, the inhibition at 10 µM in data set [2] is 91%.

For `Cc1nc(C(=O)N2CCC[C@@H](C)[C@H]2CNc2ncc(Cl)cn2)c(-c2ccc(F)cc2)s1` [Example A41, ((2S,3R)-2-(((5-Chloropyrimidin-2-yl)amino)methyl)-3-methylpiperidin-1-yl)(5-(4-fluorophenyl)-2-methylthiazol-4-yl)methanone], in data set [1] (setting [3]), the IC50 came out at 4 nM. For the same compound, in data set [2], the inhibition at 10 µM worked out at 52%.

Turning to `C[C@@H]1CCCN(C(=O)c2c(F)cccc2-n2nccn2)[C@@H]1CNc1ncc(C(F)(F)F)cn1` [Example A259, (2-Fluoro-6-(2H-1,2,3-triazol-2-yl)phenyl)((2S,3R)-3-methyl-2-(((5-(trifluoromethyl)pyrimidin-2-yl)amino)methyl)piperidin-1-yl)methanone], the IC50 in data set [1] (setting [3]) stood at 9 nM. The same compound registered an inhibition at 10 µM in data set [2] of 37%.

Turning to `Cc1ccc(-c2ccccn2)c(C(=O)N2CCC[C@@H](C)[C@H]2CNc2nc3cc(Cl)ccc3o2)n1` [Example A199, ((2S,3R)-2-(((5-Chlorobenzo[d]oxazol-2-yl)amino)methyl)-3-methylpiperidin-1-yl)(6′-methyl-[2,3′-bipyridin]-2′-yl)methanone], the IC50 in data set [1] (setting [3]) came to 15 nM. The compound further gave an inhibition at 10 µM in data set [2] of 62%.

`Cc1ccc(-c2nccs2)c(C(=O)N2CCC[C@@H](C)[C@H]2CNc2ccc(C(F)(F)F)cn2)c1` [Example A24, ((2S,3R)-3-Methyl-2-(((5-(trifluoromethyl)pyridin-2-yl)amino)methyl)piperidin-1-yl)(5-methyl-2-(thiazol-2-yl)phenyl)methanone]: the IC50 in data set [1] (setting [3]) was found to be 11 nM. Moreover, the inhibition at 10 µM in data set [2] was 97%.

As to `Cc1ccc(-n2ncc(C)n2)c(C(=O)N2CCC[C@@H](C)[C@H]2CNc2ccc(Cl)cn2)c1` [Example A121, ((2S,3R)-2-(((5-Chloropyridin-2-yl)amino)methyl)-3-methylpiperidin-1-yl)(5-methyl-2-(4-methyl-2H-1,2,3-triazol-2-yl)phenyl)methanone], in data set [1] (setting [3]), the IC50 came out at 5 nM. Besides, the inhibition at 10 µM in data set [2] came out at 84%.

As for `Cc1ccc(-n2nccn2)c(C(=O)N2CCC[C@@H](C)[C@H]2CNc2ncc3cc(C)ccc3n2)c1` [Example A220, ((2S,3R)-3-Methyl-2-(((6-methylquinazolin-2-yl)amino)methyl)piperidin-1-yl)(5-methyl-2-(2H-1,2,3-triazol-2-yl)phenyl)methanone], the IC50 in data set [1] (setting [3]) was 11 nM. In data set [2], this compound had an inhibition at 10 µM of 68%.

As for `Cc1ccc(-c2cnn(C)c2)c(C(=O)N2CCC[C@@H](C)[C@H]2CNc2ncccc2C#N)c1` [Example A95, 2-((((2S,3R)-3-Methyl-1-(5-methyl-2-(1-methyl-1H-pyrazol-4-yl)benzoyl)piperidin-2-yl)methyl)amino)nicotinonitrile], the IC50 in data set [1] (setting [3]) is over 1000 nM. Moreover, in data set [2], the inhibition at 10 µM was found to be 88%.

For `Cc1ccc(NC[C@@H]2[C@H](C)CCCN2C(=O)c2cc(C)ccc2-c2ncccn2)nc1` [Example A143, ((2S,3R)-3-Methyl-2-(((5-methylpyridin-2-yl)amino)methyl)piperidin-1-yl)(5-methyl-2-(pyrimidin-2-yl)phenyl)methanone], the IC50 in data set [1] (setting [3]) is 26 nM. This compound also yielded an inhibition at 10 µM in data set [2] of 75%.

For the compound `Cc1cccc(C(=O)N2CCC[C@@H](C)[C@H]2CNc2ccc(C(F)(F)F)cn2)c1-c1ncccn1` [Example A298, ((2S,3R)-3-Methyl-2-(((5-(trifluoromethyl)pyridin-2-yl)amino)methyl)piperidin-1-yl)(3-methyl-2-(pyrimidin-2-yl)phenyl)methanone], the IC50 in data set [1] (setting [3]) came to 5 nM. This compound also gave an inhibition at 10 µM in data set [2] of 75%.

On to `Cc1ccc(-n2ccc(C)n2)c(C(=O)N2CCC[C@@H](C)[C@H]2CNc2ccc(C(F)(F)F)nn2)c1` [Example A130, ((2S,3R)-3-Methyl-2-(((6-(trifluoromethyl)pyridazin-3-yl)amino)methyl)piperidin-1-yl)(5-methyl-2-(3-methyl-1H-pyrazol-1-yl)phenyl)methanone], for which the IC50 in data set [1] (setting [3]) was determined as 21 nM. This compound came in with an inhibition at 10 µM in data set [2] of 86%.

In the case of `Cc1ccc(-n2nccn2)c(C(=O)N2CCC[C@@H](C)[C@H]2CNc2ccc(C#N)nn2)c1` [Example A145, 6-((((2S,3R)-3-Methyl-1-(5-methyl-2-(2H-1,2,3-triazol-2-yl)benzoyl)piperidin-2-yl)methyl)amino)pyridazine-3-carbonitrile], in data set [1] (setting [3]), the IC50 is over 1000 nM. This compound showed an inhibition at 10 µM in data set [2] of 48%.

With `Cc1ccc(-n2nccn2)c(C(=O)N2CCC[C@@H](C)[C@H]2CNc2ncc(C(F)(F)F)cn2)c1F` [Example A319, (2-Fluoro-3-methyl-6-(2H-1,2,3-triazol-2-yl)phenyl)((2S,3R)-3-methyl-2-(((5-(trifluoromethyl)pyrimidin-2-yl)amino)methyl)piperidin-1-yl)methanone], the IC50 in data set [1] (setting [3]) came to 6 nM. Besides, the inhibition at 10 µM in data set [2] amounted to 53%.

Consider `Cc1ccc(-n2cccn2)c(C(=O)N2CCC[C@@H](C)[C@H]2CNc2ccc(C)nn2)c1` [Example A154, ((2S,3R)-3-Methyl-2-(((6-methylpyridazin-3-yl)amino)methyl)piperidin-1-yl)(5-methyl-2-(1H-pyrazol-1-yl)phenyl)methanone], for which the IC50 in data set [1] (setting [3]) was over 1000 nM. For the same compound, the inhibition at 10 µM in data set [2] was determined as 43%.

Consider `Cc1ccc(-c2ccccn2)c(C(=O)N2CCC[C@@H](C)[C@H]2CNc2ccc(Cl)cn2)c1` [Example A117, ((2S,3R)-2-(((5-chloropyridin-2-yl)amino)methyl)-3-methylpiperidin-1-yl)(5-methyl-2-(pyridin-2-yl)phenyl)methanone], for which, in data set [1] (setting [3]), the IC50 was found to be 37 nM. The compound further showed an inhibition at 10 µM in data set [2] of 92%.

Turning to `Cc1nc(C(=O)N2CCC[C@@H](C)[C@H]2CNc2ccc(C(F)(F)F)cn2)c(-c2ccc(F)cc2)s1` [Example A85, (5-(4-Fluorophenyl)-2-methylthiazol-4-yl)((2S,3R)-3-methyl-2-(((5-(trifluoromethyl)pyridin-2-yl)amino)methyl)piperidin-1-yl)methanone], the IC50 came to 2 nM in data set [1] (setting [3]) and 2 nM in data set [1] (Table 6, racemate vs enantiomers, read-out: OX1 IC50). Moreover, the inhibition at 10 µM in data set [2] was found to be 9%.

Regarding `C[C@@H]1CCCN(C(=O)c2cc(Cl)ccc2-c2ncccn2)[C@@H]1CNc1ncc(C(F)(F)F)cn1` [Example A201, (5-Chloro-2-(pyrimidin-2-yl)phenyl)((2S,3R)-3-methyl-2-(((5-(trifluoromethyl)pyrimidin-2-yl)amino)methyl)piperidin-1-yl)methanone], the IC50 in data set [1] (setting [3]) turned out to be 4 nM. Further, 10 µM produced 38% inhibition in data set [2].

For `Cc1ccc(-n2nccn2)c(C(=O)N2CCC[C@@H](C)[C@H]2CNc2ccc(C#N)cn2)n1` [Example A189, 6-((((2S,3R)-3-Methyl-1-(6-methyl-3-(2H-1,2,3-triazol-2-yl)picolinoyl)piperidin-2-yl)methyl)amino)nicotinonitrile], the IC50 in data set [1] (setting [3]) stood at 120 nM. The compound further showed an inhibition at 10 µM in data set [2] of 37%.
